These results are taken from patent US7696203B2, “DNA-PK inhibitors” (Kudos Pharmaceuticals Limited, priority 2005, dated 2010).

One data set has as its target Mammalian DNA-PK (Homo sapiens, UniProt P78527). Nature of the data set: DNA-PK inhibition assay (ELISA of p53 Ser15 phosphorylation of GST-p53N66). It is filed as biochemical, human (isolated from HeLa cell nuclear extract). On the procedure:
In order to assess the inhibitory action of the compounds against DNA-PK in vitro, the following assay was used to determine IC50 values.
To the assay mix, varying concentrations of inhibitor (in DMSO at a final concentration of 1%) were added. After 10 minutes of incubation, ATP was added to give a final concentration of 50 μM along with a 30 mer double stranded DNA oligonucleotide (final concentration of 0.5 ng/ml) to initiate the reaction. After 1 hour with shaking, 150 μl of phosphate buffered saline (PBS) was added to the reaction and 5 μl then transferred to a 96 well opaque white plate containing 45 μl of PBS per well where the GSTp53N66 substrate was allowed to bind to the wells for 1 hour. To detect the phosphorylation event on the serine 15 residue of p53 elicited by DNA-PK a p53 phosphoserine-15 antibody (Cell Signaling Technology) was used in a basic ELISA procedure. An anti-rabbit HRP conjugated secondary antibody (Pierce) was then employed in the ELISA before the addition of chemiluminescence reagent (NEN Renaissance) to detect the signal as measured by chemiluminescent counting via a TopCount NXT (Packard).
The enzyme activity for each compound is then calculated using the following equation: […]
These are determined over a range of different concentrations, normally from 10 μM down to 0.001 μM. Such IC50 values are used as comparative values to identify increased compound potencies.
(In general: In an ELISA, binding on a coated surface is turned into a signal by an enzyme label.)

The subject of another data set is HeLa cells. Nature of the data set: Survival Enhancement Ratio (clonogenic survival after 2 Gray irradiation). The format is cell-based, human. Conditions: inhibitor at 100 nM. On the procedure: Survival Enhancement Ratio
The Survival Enhancement Ratio (SER) is a ratio of the enhancement of cell kill elicited by the DNA-PK inhibitor after 2 Grays of irradiation compared to unirradiated control cells. […] Radiation was delivered by a Faxitron 43855D machine at a dose rate of 1 Gy pre minute The SER at 2 Gray irradiation was calculated from the formula:
The degree of cell killing was monitored by a standard clonogenic survival assay. Briefly, tissue culture treated 6-well plates were seeded with HeLa cells at an appropriate concentration to give 100-200 colonies per well and returned to the incubator in order to allow the cells to attach. Four hours later, compound or vehicle control was added to the cells. The cells were then incubated for 1 hour in the presence of inhibitor prior to irradiation at 2 Gray using a Faxitron 43855D cabinet X-ray machine. The cells were then incubated for a further 16 hours before the media was replaced with fresh media in the absence of DNA-PK inhibitor. After 8 days, colonies formed were fixed and stained with Giemsa (Sigma, Poole, UK) and scored using an automated colony counter (Oxford Optronics Ltd, Oxford, UK). The data was calculated as described above.

A further data set deals with cells. Conditions: ionising radiation, literature; cited from earlier work.
The mark [1] stands for this setting: DNA-PK from HeLa nuclear extract, 50 μM ATP, 30° C., read-out: IC50 (concentration at which 50% of the enzyme activity is inhibited), DNA-PK inhibition.

The term melting point denotes the temperature of the solid-liquid transition.

The structures appear in SMILES notation. Read-outs that look alike come from different tables or passages of the source.

`C[C@@H]1CN(CCC(=O)Nc2ccc(-c3cccc4c(=O)cc(N5CCOCC5)oc34)c3oc4ccccc4c23)C[C@H](C)O1` [Compound 45a]: the IC50 on Mammalian DNA-PK (setting [1]) was less than 100 nM.
Same read-out and setting: with `O=C(CN1CCN(CCO)CC1)Nc1ccc(-c2cccc3c(=O)cc(N4CCOCC4)[nH]c23)c2oc3ccccc3c12` [Compound 42f] the figure was less than 100 nM.
As for `O=c1cc(N2CCOCC2)nc2c(-c3cccc4c3oc3ccccc34)cccn12` [Compound 34b], the IC50 at Mammalian DNA-PK was less than 100 nM.
In the case of `COCCN1CCN(CC(=O)Nc2ccc(-c3cccc4c(=O)cc(N5CCOCC5)[nH]c34)c3oc4ccccc4c23)CC1` [Compound 42b], at Mammalian DNA-PK (setting [1]), the IC50 is less than 100 nM.
Regarding `O=c1cc(N2CCOCC2)[nH]c2c(-c3ccc([N+](=O)[O-])c4c3oc3ccccc34)cccc12` [Compound 28, 2-Morpholin-4-yl-8-(1-nitro-dibenzofuran-4-yl)-1H-quinolin-4-one], the melting point was determined as 247 °C.
`O=C(CN1CCOCC1)Nc1ccc(-c2cccc3c(=O)cc(N4CCOCC4)[nH]c23)c2sc3ccccc3c12` [Compound 38b]: the IC50 at Mammalian DNA-PK (setting [1]) is less than 100 nM.
`O=c1cc(N2CCOCC2)nc2c(-c3ccc(O)c4c3sc3ccccc34)cccn12` [Compound 31, 9-(1-Hydroxy-dibenzothiophen-4-yl)-2-morpholin-4-yl-pyrido[2,1-a]pyrimidin-4-one]: the IC50 at Mammalian DNA-PK (setting [1]) is less than 100 nM.
On to `C[C@@H]1CN(CC(=O)Nc2ccc(-c3cccc4c(=O)cc(N5CCOCC5)[nH]c34)c3oc4ccccc4c23)C[C@H](C)O1` [Compound 42d], for which the IC50 on Mammalian DNA-PK (setting [1]) was less than 100 nM.
Turning to `O=c1cc(N2CCOCC2)oc2c(-c3cccc4c3sc3ccccc34)cccc12` [reference compound], the “SER (Survival Enhancement Ratio)” value with HeLa cells stood at 1.3. The compound also registered an IC50 on Mammalian DNA-PK of 10 to 12 nM.
On to `O=c1cc(N2CCOCC2)oc2c(-c3ccccc3)cccc12` [LY294002], for which the “sensitisation of cells to the effects of IR” value with cells was “weakly sensitise cells”.
For the compound `O=C(CCN1CCOCC1)Nc1ccc(-c2cccc3c(=O)cc(N4CCOCC4)oc23)c2oc3ccccc3c12` [Compound 45c], the IC50 on Mammalian DNA-PK (setting [1]) was less than 100 nM.
For the compound `Nc1ccc(-c2cccn3c(=O)cc(N4CCOCC4)nc23)c2sc3ccccc3c12` [Compound 23, 9-(1-Amino-dibenzothiophen-4-yl)-2-morpholin-4-yl-pyrido[2,1-a]pyrimidin-4-one], the IC50 on Mammalian DNA-PK (setting [1]) is less than 100 nM.
The same measure, in the same setting: for `Nc1ccc(-c2cccc3c(=O)cc(N4CCOCC4)[nH]c23)c2sc3ccccc3c12` [Compound 25, 8-(1-amino-dibenzothiophen-4-yl)-2-morpholin-4-yl-1H-quinolin-4-one] the value was less than 100 nM.
